The record followed here is PubChem BioAssay AID206 (DTP/NCI, 2004).

Molecules are shown by their SMILES. Values joined by “and” are separate entries in the source; they are usually repeats but may differ in a detail not shown here. Equal entries are not always repeated. Records with an inconclusive call do not appear.

For the assay, the system named is nude mice, HT29 intrarenal xenograft, tumor weight T/C. Kind of assay: NCI In Vivo Anticancer Drug Screen. Data for tumor model HT29;CX-1 Human Adenocarcinoma (MER+) (intrarenal inoculation) in NU/NU Swiss (nude) mice. The following applies: endpoint: mean tumor weight change, higher = larger tumour. The procedure, abridged:
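Endpoint measured as tumor size or survival; ratio reported is treated group over vehicle controls.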

[1] abbreviates: dose: 200.0 mg/kg/injection, schedule: Q04DX004 (sc), vehicle: saline with Tween-80.
[2] abbreviates: dose: 600.0 mg/kg/injection, schedule: Q04DX004 (sc), vehicle: Klucel (hydroxypropylcellulose) (HPC).
The mark [3] stands for this setting: dose: 1200.0 mg/kg/injection, schedule: Q04DX004 (sc), vehicle: Klucel (hydroxypropylcellulose) (HPC).
Setting [4] is: dose: 150.0 mg/kg/injection, schedule: Q04DX004 (sc), vehicle: saline with Tween-80.
[5] abbreviates: dose: 600.0 mg/kg/injection, schedule: Q04DX004 (sc), vehicle: saline with Tween-80.
The mark [6] stands for this setting: dose: 1200.0 mg/kg/injection, schedule: Q04DX004 (sc), vehicle: saline with Tween-80.
Where [7] appears, read: dose: 300.0 mg/kg/injection, schedule: Q04DX004 (sc), vehicle: saline with Tween-80.
The mark [8] stands for this setting: dose: 2400.0 mg/kg/injection, schedule: Q04DX004 (sc), vehicle: saline with Tween-80.
[9] abbreviates: dose: 50.0 mg/kg/injection, schedule: Q04DX004 (sc), vehicle: saline with Tween-80.
Setting [10] is: dose: 75.0 mg/kg/injection, schedule: Q04DX004 (sc), vehicle: saline with Tween-80.

As for `Cc1ccc(S(=O)(=O)NC(=O)OC23COCN2COC3)cc1`, the T/C is 84 % of control under setting [1]; 153 % of control (dose: 800.0 mg/kg/injection, schedule: Q04DX004 (sc), vehicle: saline with Tween-80); 121 % of control (dose: 1600.0 mg/kg/injection, schedule: Q04DX004 (sc), vehicle: saline with Tween-80).
For the compound `C[Si](C)(C)OSc1ccccc1[N+](=O)[O-]`, the T/C was 79 % of control (dose: 300.0 mg/kg/injection, schedule: Q04DX004 (sc), vehicle: Klucel (hydroxypropylcellulose) (HPC)); 61 % of control under setting [2]; 107 % of control under setting [3]; 93 % of control (dose: 2400.0 mg/kg/injection, schedule: Q04DX004 (sc), vehicle: Klucel (hydroxypropylcellulose) (HPC)).
For `O=C(O)CC(=O)O.[NH-]CC[NH-].[Pt+2]`, the T/C reads like this: (dose: 25.0 mg/kg/injection, schedule: Q01DX010 (sc), vehicle: dextrose) 29 % of control; (dose: 50.0 mg/kg/injection, schedule: Q01DX010 (sc), vehicle: dextrose) 41 % of control.
For `CC(C)[NH-].CC(C)[NH-].[Cl][Pt+2][Cl]`, the T/C was 58 % of control (dose: 37.5 mg/kg/injection, schedule: Q04DX004 (sc), vehicle: dextrose); 43 % of control (dose: 75.0 mg/kg/injection, schedule: Q04DX004 (sc), vehicle: dextrose); 21 % of control (dose: 150.0 mg/kg/injection, schedule: Q04DX004 (sc), vehicle: dextrose).
Take `CC1=CC2c3cccc4[nH]cc(c34)CC2N(C)C1` (stereo not given): the T/C was 85 % of control (dose: 12.5 mg/kg/injection, schedule: Q04DX004 (sc), vehicle: suspension in saline); 61 % of control (dose: 25.0 mg/kg/injection, schedule: Q04DX004 (sc), vehicle: suspension in saline); 90 % of control (dose: 50.0 mg/kg/injection, schedule: Q04DX004 (sc), vehicle: suspension in saline).
Consider `O=C(Nc1cccc(Cl)c1)ON1C(=O)C2C(C1=O)C1(Cl)C(Cl)C(Cl)C2(Cl)C1(Cl)Cl` (stereo not given), for which the T/C under setting [4] is 90 % of control, the T/C under setting [5] was 169 % of control and the T/C under setting [6] was 89 % of control.
Consider `CCC1(O)CC2CN(CCc3c([nH]c4ccccc34)C(C(=O)OC)(c3cc4c(cc3OC)N(C)C3C(O)(C(=O)NCCSSCCNC(=O)C5(O)C(O)C6(CC)C=CCN7CCC8(c9cc(C%10(C(=O)OC)CC%11CN(CCc%12c%10[nH]c%10ccccc%12%10)CC(O)(CC)C%11)c(OC)cc9N(C)C58)C76)C(O)C5(CC)C=CCN6CCC43C65)C2)C1` (stereo not given), for which the T/C reads like this: (dose: 0.38 mg/kg/injection, schedule: Q04DX004 (sc), vehicle: suspension in saline) 85 % of control; (dose: 0.75 mg/kg/injection, schedule: Q04DX004 (sc), vehicle: saline) 39 % of control; (dose: 0.75 mg/kg/injection, schedule: Q04DX004 (sc), vehicle: suspension in saline) 84 % of control; (dose: 1.5 mg/kg/injection, schedule: Q04DX004 (sc), vehicle: saline) 22 % of control and 29 % of control; (dose: 1.5 mg/kg/injection, schedule: Q04DX004 (sc), vehicle: suspension in saline) 44 % of control; (dose: 3.0 mg/kg/injection, schedule: Q04DX004 (sc), vehicle: saline) -5 % of control. For the same compound, the T/C by setting is: (dose: 3.0 mg/kg/injection, schedule: Q04DX004 (sc), vehicle: suspension in saline) 55 % of control; (dose: 6.0 mg/kg/injection, schedule: Q04DX004 (sc), vehicle: suspension in saline) 51 % of control.
For `O=[N+]([O-])c1ccc(Sc2ccncn2)c([N+](=O)[O-])c1`, the T/C was 44 % of control under setting [4]; 85 % of control under setting [7]; 85 % of control and 100 % of control under setting [5]; 73 % of control under setting [6]; 86 % of control under setting [8].
Take `COc1ccc(S(=O)(=O)N/N=C/C(=O)O)cc1`: the T/C was 94 % of control (dose: 25.0 mg/kg/injection, schedule: Q04DX004 (sc), vehicle: saline with Tween-80); 90 % of control and 102 % of control under setting [9]; 59 % of control and 82 % of control (dose: 100.0 mg/kg/injection, schedule: Q04DX004 (sc), vehicle: saline with Tween-80).
For the compound `Cc1ccccc1CN1C2=NCCN2C(=O)C2=C1CCN(S(=O)(=O)c1ccc(Cl)c(S(N)(=O)=O)c1)C2`, the T/C is, setting by setting: (dose: 150.0 mg/kg/injection, schedule: Q04DX004 (sc), vehicle: saline) 86 % of control; (dose: 300.0 mg/kg/injection, schedule: Q04DX004 (sc), vehicle: saline) 168 % of control; (dose: 600.0 mg/kg/injection, schedule: Q04DX004 (sc), vehicle: saline) 115 % of control; (dose: 1200.0 mg/kg/injection, schedule: Q04DX004 (sc), vehicle: saline) 75 % of control.
As to `CCCCCCCCCCCCCCCC(=O)OCC1OC(n2ccc(N)nc2=O)C(O)C1O` (stereo not given), the T/C (dose: 18.75 mg/kg/injection, schedule: Q04DX004 (sc), vehicle: saline with Tween-80) is 41 % of control.
In the case of `C/C=C/c1cc2c(c(=O)o1)C(=O)[C@@H](O)[C@H](C)O2`, the T/C runs as follows: under setting [9], 107 % of control; under setting [1], 79 % of control.
Regarding `CC(=O)N(C)C`, the T/C is 112 % of control (dose: 1350.0 mg/kg/injection, schedule: Q04DX004 (sc), vehicle: saline) and 45 % of control (dose: 2700.0 mg/kg/injection, schedule: Q04DX004 (sc), vehicle: saline).
Turning to `C[PH+](C)C.C[PH+](C)C.[Au]`, the T/C is, setting by setting: (dose: 2.5 mg/kg/injection, schedule: Q04DX004 (sc), vehicle: saline) 108 % of control; (dose: 20.0 mg/kg/injection, schedule: Q04DX004 (sc), vehicle: saline) 42 % of control and 65 % of control.
As to `Clc1cc(Cl)c(C[N+]23CN4CN(CN(C4)C2)C3)cc1Cl`, the T/C is, setting by setting: (dose: 37.5 mg/kg/injection, schedule: Q04DX004 (sc), vehicle: saline with Tween-80) 85 % of control; under setting [10], 95 % of control; under setting [4], 68 % of control.
As to `CC(=O)OCC1OC(n2cc(CBr)nn2)C(OC(C)=O)C(OC(C)=O)C1OC(C)=O` (stereo not given), the T/C runs as follows: (dose: 200.0 mg/kg/injection, schedule: Q01DX010 (sc), vehicle: saline with Tween-80) 79 % of control; (dose: 400.0 mg/kg/injection, schedule: Q01DX010 (sc), vehicle: saline with Tween-80) 97 % of control; (dose: 800.0 mg/kg/injection, schedule: Q01DX010 (sc), vehicle: saline with Tween-80) 70 % of control.
As to `CC(=O)Nc1cscc1NC(C)=O`, the T/C was 84 % of control under setting [10]; 81 % of control under setting [4]; 155 % of control under setting [7]; 155 % of control under setting [5]; 82 % of control under setting [6]; 118 % of control under setting [8].
As for `COc1cccc2c1C(=O)c1c(O)c3c(c(O)c1C2=O)CC(O)(/C(C)=N/NC(=O)CCC(=O)N/N=C(\C)C1(O)Cc2c(O)c4c(c(O)c2C(OC2CC(N)C(O)C(C)O2)C1)C(=O)c1c(OC)cccc1C4=O)CC3OC1CC(N)C(O)C(C)O1` (stereo not given), the T/C by setting is: (dose: 6.25 mg/kg/injection, schedule: Q01DX010 (sc), vehicle: water) 114 % of control; (dose: 12.5 mg/kg/injection, schedule: Q01DX010 (sc), vehicle: water) 47 % of control; (dose: 15.63 mg/kg/injection, schedule: Q04DX004 (sc), vehicle: water) 64 % of control; (dose: 25.0 mg/kg/injection, schedule: Q01DX010 (sc), vehicle: water) 46 % of control; (dose: 31.25 mg/kg/injection, schedule: Q04DX004 (sc), vehicle: water) 3 % of control; (dose: 62.5 mg/kg/injection, schedule: Q04DX004 (sc), vehicle: water) 120 % of control.
As to `c1ccc([C@H]2CN3CCSC3=N2)cc1`, the T/C reads like this: (dose: 15.0 mg/kg/injection, schedule: Q04DX004 (sc), vehicle: saline) 152 % of control; (dose: 30.0 mg/kg/injection, schedule: Q04DX004 (sc), vehicle: saline) 114 % of control.
For the compound `O=c1oc2c(O)c(O)cc3c(=O)oc4c(O)c(O)cc1c4c23`, the T/C (dose: 150.0 mg/kg/injection, schedule: Q04DX004 (sc), vehicle: Klucel (hydroxypropylcellulose) (HPC)) is 93 % of control; the T/C under setting [2] was 161 % of control; the T/C under setting [3] was 201 % of control.
As to `O=c1nc(Oc2ccccc2)nc2ncccn12`, the T/C reads like this: (dose: 50.0 mg/kg/injection, schedule: Q01DX010 (sc), vehicle: saline with Tween-80) 312 % of control; (dose: 100.0 mg/kg/injection, schedule: Q01DX010 (sc), vehicle: saline with Tween-80) 156 % of control.
